Activity calls are given as the source filed them. No cut-off for these calls is given here.
Columns and labels:
RAW264.7 [1] = experiment: Antiinflammatory activity in IFN-gamma/LPS-stimulated mouse RAW264.7 cells assessed as inhibition of NO production at 100 uM treated before 30 mins of IFN-gamma stimulation in presence of LPS measured after 19 hrs relative to control; assay type: functional; settings: values are per cent of control
RAW264.7 [2] = experiment: Antiinflammatory activity in IFN-gamma/LPS-stimulated mouse RAW264.7 cells assessed as NO production at 10 uM treated after 3 hrs of IFN-gamma stimulation and before 30 mins of LPS addition measured after 19 hrs relative to control
RAW264.7 [3] = experiment: Antiinflammatory activity in IFN-gamma/LPS-stimulated mouse RAW264.7 cells assessed as inhibition of NO production at 50 uM treated after 2 hrs of LPS addition measured after 19 hrs relative to control; values are per cent of control
RAW264.7 [4] = experiment: Antiinflammatory activity in IFN-gamma/LPS-stimulated mouse RAW264.7 cells assessed as inhibition of NO production at 30 uM treated after 18.5 hrs of LPS addition measured after 19 hrs relative to control; assay type: functional, cell-based
RAW264.7 [5] = experiment: Antiinflammatory activity in IFN-gamma/LPS-stimulated mouse RAW264.7 cells assessed as NO production at 100 uM treated after 3 hrs of IFN-gamma stimulation and before 30 mins of LPS addition measured after 19 hrs relative to control
RAW264.7 [6] = experiment: Cytotoxicity against IFN-gamma/LPS-stimulated mouse RAW264.7 cells at 10 to 100 uM treated after 2 hrs of LPS addition measured after 19 hrs by MTT assay; assay type: cell-based; settings: raw264.7, 19 h
RAW264.7 [7] = experiment: Antiinflammatory activity in IFN-gamma/LPS-stimulated mouse RAW264.7 cells assessed as inhibition of NO production at 50 uM treated before 30 mins of IFN-gamma stimulation in presence of LPS measured after 19 hrs relative to control; assay type: functional; settings: values are per cent of control
RAW264.7 [8] = experiment: Antiinflammatory activity in IFN-gamma/LPS-stimulated mouse RAW264.7 cells assessed as inhibition of NO production at 10 uM treated after 18.5 hrs of LPS addition measured after 19 hrs relative to control; assay type: functional, cell-based
RAW264.7 [9] = experiment: Antiinflammatory activity in IFN-gamma/LPS-stimulated mouse RAW264.7 cells assessed as inhibition of NO production at 10 uM treated after 2 hrs of LPS addition measured after 19 hrs relative to control; values are per cent of control
RAW264.7 [10] = experiment: Antiinflammatory activity in IFN-gamma/LPS-stimulated mouse RAW264.7 cells assessed as inhibition of NO production at 50 uM treated after 18.5 hrs of LPS addition measured after 19 hrs relative to control; assay type: functional, cell-based
RAW264.7 [11] = experiment: Antiinflammatory activity in IFN-gamma/LPS-stimulated mouse RAW264.7 cells assessed as NO production at 50 uM treated after 3 hrs of IFN-gamma stimulation and before 30 mins of LPS addition measured after 19 hrs relative to control
RAW264.7 [12] = experiment: Antiinflammatory activity in IFN-gamma/LPS-stimulated mouse RAW264.7 cells assessed as inhibition of NO production at 10 uM treated before 30 mins of IFN-gamma stimulation in presence of LPS measured after 19 hrs relative to control; assay type: functional; settings: values are per cent of control
RAW264.7 [13] = experiment: Cytotoxicity against IFN-gamma/LPS-stimulated mouse RAW264.7 cells at 10 to 100 uM treated after 3 hrs of IFN-gamma stimulation and before 30 mins of LPS addition measured after 19 hrs by MTT assay; assay type: cell-based; settings: raw264.7, 19 h
RAW264.7 [14] = experiment: Antiinflammatory activity in IFN-gamma/LPS-stimulated mouse RAW264.7 cells assessed as inhibition of NO production at 100 uM treated after 2 hrs of LPS addition measured after 19 hrs relative to control; values are per cent of control
RAW264.7 [15] = experiment: Cytotoxicity against IFN-gamma/LPS-stimulated mouse RAW264.7 cells at 10 to 100 uM treated after 18.5 hrs of LPS addition measured after 19 hrs by MTT assay; assay type: cell-based; settings: raw264.7, 19 h
RAW264.7 [16] = experiment: Antiinflammatory activity in IFN-gamma/LPS-stimulated mouse RAW264.7 cells assessed as inhibition of NO production at 30 uM treated before 30 mins of IFN-gamma stimulation in presence of LPS measured after 19 hrs relative to control; assay type: functional
RAW264.7 [17] = experiment: Antiinflammatory activity in IFN-gamma/LPS-stimulated mouse RAW264.7 cells assessed as inhibition of NO production at 100 uM treated after 3 hrs of IFN-gamma stimulation and before 30 mins of LPS addition measured after 19 hrs relative to control; assay type: functional
RAW264.7 [18] = experiment: Antiinflammatory activity in IFN-gamma/LPS-stimulated mouse RAW264.7 cells assessed as inhibition of NO production at 50 uM treated after 3 hrs of IFN-gamma stimulation and before 30 mins of LPS addition measured after 19 hrs relative to control; assay type: functional
RAW264.7 [19] = experiment: Antiinflammatory activity in IFN-gamma/LPS-stimulated mouse RAW264.7 cells assessed as inhibition of NO production at 30 uM treated after 3 hrs of IFN-gamma stimulation and before 30 mins of LPS addition measured after 19 hrs relative to control; assay type: functional, cell-based

| SMILES | response, % of control at 100 µM (RAW264.7 [1]) [%] | level, % of control at 10 µM (RAW264.7 [2]) [%] | NO level, % of control (RAW264.7 [3]) [%] | Activity (RAW264.7 [4]) | level, % of control at 100 µM (RAW264.7 [5]) [%] | Activity (RAW264.7 [6]) | response, % of control at 50 µM (RAW264.7 [7]) [%] | Activity (RAW264.7 [8]) | NO level, % of control (RAW264.7 [9]) [%] | Activity (RAW264.7 [10]) | level, % of control at 50 µM (RAW264.7 [11]) [%] | response, % of control at 10 µM (RAW264.7 [12]) [%] | Activity (RAW264.7 [13]) | NO level, % of control (RAW264.7 [14]) [%] | Activity (RAW264.7 [15]) | inhibition at 30 µM (RAW264.7 [16]) [%] | Activity (RAW264.7 [17]) | Activity (RAW264.7 [18]) | Activity (RAW264.7 [19]) |
| --- | --- | --- | --- | --- | --- | --- | --- | --- | --- | --- | --- | --- | --- | --- | --- | --- | --- | --- | --- |
| C[n+]1c2n(c(=O)c3ccccc31)CCc1c-2[nH]c2ccccc12 [DEHYDROEVODIAMINE] | 44 | 86.1 | 77 | inactive | 23.2 | Non-toxic | 74.2 | inactive | 84.3 | inactive | 78.1 | 80.6 | Not Active | 24.2 | – | – | – | – | – |
| CN1c2ccccc2C(=O)N2CCc3c([nH]c4ccccc34)[C@H]21 [EVODIAMINE] | – | – | – | – | – | Non-toxic | – | – | – | – | – | – | Not Active | – | Non-toxic | – | – | – | – |
| CN1c2ccccc2C(=O)N2CCc3c([nH]c4ccccc34)[C@@H]21 [EVODIAMINE] | – | – | – | – | – | – | 68.3 | – | – | – | – | 79.5 | – | – | – | 50.6 | inactive | inactive | inactive |
